According to US20110021531A1, “OXAZOLE DERIVATIVES USEFUL AS INHIBITORS OF FAAH” (priority 2009, published 2011):

Columns and labels:
[1] = target: T1, rat FAAH (Fatty Acid Amide Hydrolase) (Rattus norvegicus, UniProt P97612); assay: FAAH whole cell assay, CHO cells expressing rat FAAH; format: cell-based
T1 sequence (P97612 1-579): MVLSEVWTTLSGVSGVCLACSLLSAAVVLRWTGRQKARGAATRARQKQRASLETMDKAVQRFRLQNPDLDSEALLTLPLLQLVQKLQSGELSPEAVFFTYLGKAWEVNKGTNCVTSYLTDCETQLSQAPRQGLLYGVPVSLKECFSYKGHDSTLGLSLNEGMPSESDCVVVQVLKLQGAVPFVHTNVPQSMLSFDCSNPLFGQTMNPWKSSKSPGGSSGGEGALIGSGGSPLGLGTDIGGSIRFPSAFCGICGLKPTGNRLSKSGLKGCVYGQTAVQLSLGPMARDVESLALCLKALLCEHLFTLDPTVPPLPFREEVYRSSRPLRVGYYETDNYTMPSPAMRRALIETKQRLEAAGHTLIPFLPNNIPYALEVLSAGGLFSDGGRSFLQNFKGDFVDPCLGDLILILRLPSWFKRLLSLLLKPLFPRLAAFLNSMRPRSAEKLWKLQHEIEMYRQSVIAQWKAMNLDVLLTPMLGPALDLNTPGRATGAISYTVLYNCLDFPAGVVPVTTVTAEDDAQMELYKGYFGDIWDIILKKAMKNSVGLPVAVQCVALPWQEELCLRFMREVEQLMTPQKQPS
Description: (§1) To assist in assay development stable cell lines for human, murine and rat full length FAAH were developed. Human FAAH cDNA (Accession No: NM_001441.1) was purchased from Origene (Rockville, Md.). The full length FAAH was subcloned into the mammalian expression vector, pcDEF.neo, using XbaI and EcoRI restriction sites and used for stable cell line generation.
(§2) Murine (accession number NM_010173) and Rat FAAH (accession number NM_024132) was amplified by reverse transcriptase polymerase chain reaction (RT-PCR) from brain cDNA (BD Biosciences, San Jose, Calif.) using primers 1 and 2 or primers 1 and 3 respectively (see Table). The resulting PCR product was ligated into pCR4 TOPO and DNA sequence confirmed. The full length murine FAAH was subcloned into the mammalian expression vector, pcDEFneo using either EcoRI (murine) or KpnI and EcoRI (rat) restriction sites. Chinese hamster ovary cells (CHO) were transfected following manufacturers protocol (AMAXA). Forty eight hours post transfection, cells were trypsinized and transferred to 96 well plates in Iscove's DMEM media supplemented with 2 mM Glutamine, 10% fetal calf serum, 1 mg/ml geneticin and HT Supplement (0.1 mM sodium hypoxanthine, 0.016 mM thymidine) in order to isolate single clones. Following selection in geneticin, individual clones were selected and FAAH activity was assessed using a whole cell fluorescent anandamide assay, modified from Ramarao et al (2005). Following removal of tissue culture media cells were dislodged following addition of Cellstripper (Mediatech, Inc. Manassas, Va.) and transferred to 96 well black clear bottom assay plate, centrifuged at 1,000 rpm for 3 mins and media removed and replaced with assay buffer (50 mM Iris pH8.0, 1 mM EDTA, 0.1% fatty acid free BSA). The reaction was initiated by addition of fluorescent substrate, AMC Arachidonoyl Amide (Cayman Chemical, Ann Arbor, Mich.) to 1 μM and reaction allowed to proceed for 2 hours at room temperature. Release of fluorescence was monitored in a CytoFluor Multiplate Reader. Cells expressing the highest amount of FAAH activity were selected for study with FAAH inhibitors.
(§3) (American Radiolabeled Chemicals; 1 mCi/ml) with FAAH (Life Sciences (1995), 56, 1999-2005 and Journal of Pharmacology and Experimented Therapeutics (1997), 283, 729-734), Analytical. Biochemistry (2003), 318, 270-5. In addition, routine assays were performed monitoring hydrolysis of arachidonyl-7-amino-4-methylcoumarin amide (AAMCA) by following increase in fluorescence upon release of 7-amino 4-methyl coumarin (λEX=355 nm, (λEM=460 nm). Analytical. Biochemistry (2005). 343, 143-51
(§4) Assays are performed on either cell lysate or microsome fractions prepared as described or in whole cell format employing either the fluorescent substrate AAMCA (Cayman chemical, Ann Arbor, Mich.,) or ^3H-anandmaide ([ETHANOLAMINE-1-3H]American Radiolabeled Chemicals; 1 mCi/ml). The cell lysate or microsome assay is performed in Costar black wall, clear bottom plates by adding FAAH_CF10 (whole cell, cell lysate or microsome) in assay buffer (50 mM Phosphate, pH 8.0, 1 mM EDTA, 200 mM KCl, 0.2% glycerol, 0.1% fatty acid free BSA) to each well, followed by either DMSO or compound and allowed to incubate at 22-25° C. for fifteen minutes. AAMCA substrate was used to achieve a final concentration of 1 μM and reaction allowed to proceed at room temperature for 1-3 hours. Fluorescent release as a measure of FAAH activity was monitored by reading the plate in a CytoFluor Multiplate Reader (Ex: […]). Whole cell assay is conducted with cells harvested after rinsing tissue culture flasks three times with Ca^++Mg^++ free PBS, incubating for 10 min in Enzyme free dissociation media and centrifuging for 5 minutes at 1,000 rpm in table top centrifuge. Cells are resuspended in assay buffer at desired cell number in (4×10^4 cells/assay in 96-well format; 1×10^4 cells/assay in 384-well format) and assayed as described.

[2] = target: T2, human FAAH (Fatty Acid Amide Hydrolase) (Homo sapiens, UniProt O00519); assay: FAAH enzyme assay on lysate of CHO cells expressing human FAAH; format: biochemical
T2 construct: The full length FAAH was subcloned into the mammalian expression vector, pcDEF.neo
T2 sequence (O00519 1-579): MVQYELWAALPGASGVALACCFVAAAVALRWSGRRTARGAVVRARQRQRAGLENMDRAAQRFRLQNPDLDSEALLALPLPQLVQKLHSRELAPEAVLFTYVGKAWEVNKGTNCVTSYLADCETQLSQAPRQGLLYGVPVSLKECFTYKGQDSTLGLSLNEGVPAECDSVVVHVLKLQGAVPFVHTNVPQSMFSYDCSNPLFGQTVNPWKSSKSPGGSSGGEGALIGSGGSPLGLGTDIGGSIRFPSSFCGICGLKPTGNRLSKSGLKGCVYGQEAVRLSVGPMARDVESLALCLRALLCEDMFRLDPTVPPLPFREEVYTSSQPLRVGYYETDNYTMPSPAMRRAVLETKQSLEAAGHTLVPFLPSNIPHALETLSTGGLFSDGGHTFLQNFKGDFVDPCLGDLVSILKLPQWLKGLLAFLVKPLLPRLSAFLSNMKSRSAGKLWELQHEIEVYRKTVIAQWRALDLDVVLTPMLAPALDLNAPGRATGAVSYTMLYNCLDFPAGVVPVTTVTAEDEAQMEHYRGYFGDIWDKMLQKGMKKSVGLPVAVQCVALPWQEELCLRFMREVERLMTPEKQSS
Description: as §1
CHO cells expressing FAAH were used to prepare either crude cell lysate or microsome fractions. To harvest cells, tissue culture media was decanted, the monolayer washed three times with Ca^++Mg^++ free PBS and cells recovered after […] in enzyme free dissociation media (Millipore Corp, Billerica, Mass.). Cells were collected by centrifuging at 2000 rpm for 15 min. and the cell pellet re-suspended with 50 mM HEPES (pH 7.4) containing 1 mM EDTA and the protease inhibitors aprotinin (1 mg/ml) and leupeptin (100 μM). The suspension was sonicated at 4° C. and the cell lysate recovered after centrifuging at 12,000×g (14,600 rpm, SS34 rotor) for 20 min at 4° C. to form a crude pellet of cell debris, nuclei, peroxisomes, lysosomes, and mitochondria; the supernatant or cell lysate was used for FAAH enzyme assay. In some cases, microsomes fractions enriched in FAAH were prepared by centrifuging the cell lysate further at 27,000 rpm (100,000×g) in SW28 rotor for 50 minutes at 4° C. The pellet containing FAAH-enriched microsomes was re-suspend in 50 mM HEPES, (pH 7.4) 1 mM EDTA, and any remaining DNA sheared by passage of material through a 23 gauge needle and aliquots of enzyme were store at −80° C. prior to use.
as §3, §4
Alternatively, assays are performed using anandamide [ethanolamine 1-^3H] (specific activity of 10 Ci/mmol) diluted with cold anandamide to achieve a final assay concentration of 1 μM anandamide (˜50,000 cpm). Enzyme (CHO cell lysate, brain or liver homogenate) is incubated in assay buffer (50 mM Phosphate, pH 8.0, 1 mM EDTA, 200 mM KCl, 0.2% glycerol, 0.1% fatty acid free BSA) with inhibitor at 25° C. for 30 minutes. The reaction was terminated by addition of 2 volumes of chloroform:methanol (1:1) and mixed by vortexing. […]

[3] = target: T2, human FAAH (Fatty Acid Amide Hydrolase); assay: FAAH whole cell assay, CHO cells expressing human FAAH; format: cell-based
Description: as §1, §2, §3, §4

IC50 [1] | IC50 [2] | IC50 [3] | SMILES
0.017 µM | 0.005 µM | 0.02 µM | C[S+]([O-])c1ccc(-c2nc(-c3ccc(F)cc3)oc2Sc2ccc(Cl)cn2)cn1 (racemic) [Ex 108, (R)-5-Chloro-2-({2-(4-fluorophenyl)-4-[6-(methylsulfinyl)pyridin-3-yl]-1,3-oxazol-5-yl}sulfanyl)pyridine and (S)-5-Chloro-2-({2-(4-fluorophenyl)-4-[6-(methylsulfinyl)pyridin-3-yl]-1,3-oxazol-5-yl}sulfanyl)pyridine]
0.018 µM | 0.038 µM | 0.078 µM | CC(C)(O)c1ccc(-c2nc(-c3ccc(F)cc3)oc2Sc2ccc(F)cn2)cn1 [Ex 19]
